Experimental data reported in ChEMBL document CHEMBL5303573, “Mapping human microbiome drug metabolism by gut bacteria and their genes” (Nature, 2019).

Experiments:
[1] = The drug is tested on Bacteroides vulgatus strain: ATCC8482 for biotransformation. The drug concentrations were measured before and after a 12-h incubation by liquid-chromatography-coupled mass spectrometry (LC–MS); conditions: phocaeicola vulgatus, 2 µM
[2] = The drug is tested on Clostridium scindens strain: ATCC35704 for biotransformation. The drug concentrations were measured before and after a 12-h incubation by liquid-chromatography-coupled mass spectrometry (LC–MS); conditions: 2 µM
[3] = The drug is tested on Bacteroides uniformis strain: ATCC8492 for biotransformation. The drug concentrations were measured before and after a 12-h incubation by liquid-chromatography-coupled mass spectrometry (LC–MS); conditions: 2 µM
[4] = The drug is tested on Bacteroides pectinophilus strain: ATCC43243 for biotransformation. The drug concentrations were measured before and after a 12-h incubation by liquid-chromatography-coupled mass spectrometry (LC–MS); conditions: 2 µM
[5] = The drug is tested on Edwardsiella tarda strain: ATCC23685 for biotransformation. The drug concentrations were measured before and after a 12-h incubation by liquid-chromatography-coupled mass spectrometry (LC–MS); conditions: 2 µM
[6] = The drug is tested on Alistipes indistinctus strain: DSM22520 for biotransformation. The drug concentrations were measured before and after a 12-h incubation by liquid-chromatography-coupled mass spectrometry (LC–MS); conditions: 2 µM
[7] = The drug is tested on Coprococcus comes strain: ATCC27758 for biotransformation. The drug concentrations were measured before and after a 12-h incubation by liquid-chromatography-coupled mass spectrometry (LC–MS); assay type: ADME; parameters: dose 2 uM, timepoint 0 vs 12 hours; conditions: 2 µM
[8] = anaerostipes sp., 12 h, 2 µM
Description: The drug is tested on Anaerostipes sp. strain: fecal isolate for biotransformation. The drug concentrations were measured before and after a 12-h incubation by liquid-chromatography-coupled mass spectrometry (LC–MS)

[9] = The drug is tested on Blautia luti strain: DSM14534 for biotransformation. The drug concentrations were measured before and after a 12-h incubation by liquid-chromatography-coupled mass spectrometry (LC–MS); assay type: ADME; parameters: dose 2 uM, timepoint 0 vs 12 hours; conditions: 2 µM
[10] = The drug is tested on Bacteroides fragilis strain: HMW610 for biotransformation. The drug concentrations were measured before and after a 12-h incubation by liquid-chromatography-coupled mass spectrometry (LC–MS); conditions: 2 µM
[11] = The drug is tested on Anaerococcus hydrogenalis strain: DSM7454 for biotransformation. The drug concentrations were measured before and after a 12-h incubation by liquid-chromatography-coupled mass spectrometry (LC–MS); conditions: 2 µM
[12] = The drug is tested on Clostridium symbiosum strain: ATCC14940 for biotransformation. The drug concentrations were measured before and after a 12-h incubation by liquid-chromatography-coupled mass spectrometry (LC–MS); conditions: 2 µM
[13] = The drug is tested on Clostridium sporogenes strain: ATCC15579 for biotransformation. The drug concentrations were measured before and after a 12-h incubation by liquid-chromatography-coupled mass spectrometry (LC–MS); conditions: 2 µM
[14] = The drug is tested on Subdoligranulum variabile strain: DSM15176 for biotransformation. The drug concentrations were measured before and after a 12-h incubation by liquid-chromatography-coupled mass spectrometry (LC–MS); conditions: 2 µM
[15] = bacteroides fragilis, 12 h, 2 µM
Description: The drug is tested on Bacteroides fragilis strain: NCTC 9343 for biotransformation. The drug concentrations were measured before and after a 12-h incubation by liquid-chromatography-coupled mass spectrometry (LC–MS)

[16] = The drug is tested on Odoribacter splanchnicus strain: fecal isolate for biotransformation. The drug concentrations were measured before and after a 12-h incubation by liquid-chromatography-coupled mass spectrometry (LC–MS); conditions: 2 µM
[17] = bacteroides thetaiotaomicron, 12 h, 2 µM
Description: The drug is tested on Bacteroides thetaiotaomicron strain: 3731 for biotransformation. The drug concentrations were measured before and after a 12-h incubation by liquid-chromatography-coupled mass spectrometry (LC–MS)

[18] = The drug is tested on Parabacteroides merdae strain: ATCC43184 for biotransformation. The drug concentrations were measured before and after a 12-h incubation by liquid-chromatography-coupled mass spectrometry (LC–MS); conditions: 2 µM
[19] = The drug is tested on Bacteroides ovatus strain: ATCC8483 for biotransformation. The drug concentrations were measured before and after a 12-h incubation by liquid-chromatography-coupled mass spectrometry (LC–MS); conditions: 2 µM
[20] = The drug is tested on Eggerthella lenta strain: ATCC25559 for biotransformation. The drug concentrations were measured before and after a 12-h incubation by liquid-chromatography-coupled mass spectrometry (LC–MS); conditions: 2 µM

Row | SMILES | Bacterial Biotransformation [1] | Bacterial Biotransformation [2] | Bacterial Biotransformation [3] | Bacterial Biotransformation [4] | Bacterial Biotransformation [5] | Bacterial Biotransformation [6] | Bacterial Biotransformation [7] | Bacterial Biotransformation [8] | Bacterial Biotransformation [9] | Bacterial Biotransformation [10] | Bacterial Biotransformation [11] | Bacterial Biotransformation [12] | Bacterial Biotransformation [13] | Bacterial Biotransformation [14] | Bacterial Biotransformation [17] | Bacterial Biotransformation [18] | Bacterial Biotransformation [20] | Bacterial Biotransformation [15] | Bacterial Biotransformation [16] | Bacterial Biotransformation [19]
1 | CCN(CC)CCNC(=O)c1ccc(NC(C)=O)cc1 [ACECAINIDE] | Compound NOT metabolized | Compound NOT metabolized | Compound metabolized | Compound NOT metabolized | Compound NOT metabolized | Compound NOT metabolized | Compound NOT metabolized | Compound NOT metabolized | Compound NOT metabolized | Compound NOT metabolized | Compound NOT metabolized | Compound NOT metabolized | Compound NOT metabolized | Compound NOT metabolized | – | – | – | – | – | –
2 | Clc1ccc(Cn2c(CN3CCCC3)nc3ccccc32)cc1 [CLEMIZOLE] | Compound NOT metabolized | Compound NOT metabolized | Compound NOT metabolized | Compound NOT metabolized | Compound NOT metabolized | Compound NOT metabolized | Compound NOT metabolized | Compound NOT metabolized | Compound NOT metabolized | Compound NOT metabolized | Compound NOT metabolized | Compound NOT metabolized | Compound NOT metabolized | Compound NOT metabolized | Compound NOT metabolized | Compound NOT metabolized | – | – | Compound NOT metabolized | Compound NOT metabolized
3 | COC(=O)[C@H](c1ccccc1Cl)N1CCc2sccc2C1.O=S(=O)(O)O [CLOPIDOGREL BISULFATE] | Compound metabolized | Compound NOT metabolized | Compound metabolized | Compound NOT metabolized | Compound NOT metabolized | Compound NOT metabolized | Compound NOT metabolized | Compound NOT metabolized | Compound NOT metabolized | Compound metabolized | Compound NOT metabolized | Compound NOT metabolized | Compound metabolized | Compound NOT metabolized | Compound NOT metabolized | Compound metabolized | – | Compound metabolized | Compound metabolized | Compound metabolized
4 | COc1cc2c(c(OC)c1OC)-c1ccc(OC)c(=O)cc1[C@@H](NC(C)=O)CC2 [COLCHICINE] | Compound metabolized | Compound NOT metabolized | Compound metabolized | – | Compound NOT metabolized | Compound NOT metabolized | Compound NOT metabolized | Compound metabolized | Compound NOT metabolized | Compound metabolized | Compound NOT metabolized | Compound metabolized | Compound metabolized | Compound NOT metabolized | Compound metabolized | Compound NOT metabolized | – | Compound metabolized | Compound metabolized | Compound NOT metabolized
5 | Cc1nc2n(c(=O)c1CCN1CCC(c3noc4cc(F)ccc34)CC1)CCCC2 [RISPERIDONE] | Compound NOT metabolized | Compound metabolized | Compound NOT metabolized | – | Compound NOT metabolized | Compound metabolized | Compound metabolized | – | Compound metabolized | Compound metabolized | Compound metabolized | Compound metabolized | Compound metabolized | Compound metabolized | Compound NOT metabolized | Compound NOT metabolized | – | Compound NOT metabolized | Compound metabolized | Compound NOT metabolized

The next lines start with results.

Row | Bacterial Biotransformation [1] | Bacterial Biotransformation [2] | Bacterial Biotransformation [3] | Bacterial Biotransformation [4] | Bacterial Biotransformation [5] | Bacterial Biotransformation [6] | Bacterial Biotransformation [7] | Bacterial Biotransformation [8] | Bacterial Biotransformation [9] | Bacterial Biotransformation [10] | Bacterial Biotransformation [11] | Bacterial Biotransformation [12] | Bacterial Biotransformation [13] | Bacterial Biotransformation [14] | Bacterial Biotransformation [17] | Bacterial Biotransformation [18] | Bacterial Biotransformation [20] | SMILES | Bacterial Biotransformation [15] | Bacterial Biotransformation [16] | Bacterial Biotransformation [19]
6 | Compound metabolized | Compound NOT metabolized | Compound metabolized | Compound NOT metabolized | Compound NOT metabolized | Compound NOT metabolized | Compound NOT metabolized | Compound NOT metabolized | – | Compound metabolized | Compound NOT metabolized | Compound NOT metabolized | Compound metabolized | Compound NOT metabolized | Compound metabolized | Compound metabolized | – | CCOC(=O)[C@H](CCc1ccccc1)N[C@H]1CCc2ccccc2N(CC(=O)O)C1=O [BENAZEPRIL] | Compound NOT metabolized | Compound metabolized | Compound metabolized
7 | Compound metabolized | Compound NOT metabolized | Compound metabolized | Compound metabolized | Compound NOT metabolized | Compound metabolized | Compound NOT metabolized | Compound NOT metabolized | Compound NOT metabolized | Compound metabolized | Compound NOT metabolized | Compound NOT metabolized | Compound NOT metabolized | Compound metabolized | Compound metabolized | Compound NOT metabolized | – | O=C(O)COCCN1CCN(C(c2ccccc2)c2ccc(Cl)cc2)CC1 (stereo not drawn) [CETIRIZINE] | Compound metabolized | – | –
8 | Compound NOT metabolized | Compound NOT metabolized | Compound metabolized | Compound NOT metabolized | Compound NOT metabolized | Compound NOT metabolized | Compound NOT metabolized | Compound NOT metabolized | Compound NOT metabolized | Compound metabolized | Compound NOT metabolized | Compound metabolized | – | – | Compound NOT metabolized | Compound NOT metabolized | Compound NOT metabolized | CCOc1cc(CC(=O)N[C@@H](CC(C)C)c2ccccc2N2CCCCC2)ccc1C(=O)O [REPAGLINIDE] | – | Compound NOT metabolized | Compound NOT metabolized
